A short description of series [1]: Pharmacokinetics of Compounds 106 and 108 after intravenous and oral dosing in chimpanzees. The note with it: chimps; for AUC(0-inf) / clearance / half-life / Cmax: both sexes, plasma, 100 mg each co-dosed; for half-life: 30 minute infusion. It is filed as in vivo. On the procedure:
Chimpanzees (one male and one female for each route of administration) were administered a combination of 100 mg of Compound 106, 100 mg of Compound 108 and 100 mg of pirfenidone in 10% DMI (dimethyl isosorbide), 15% ethanol, 35% PG in distilled water (total volume 150 ml) by either oral or intravenous dosing. Intravenous dosing was performed by infusion over a 30 minute period. Blood samples from the orally dosed chimps were collected just prior to dosing and at 15, 30, 60, 90, 120, 240, 360, 480, 600, 720 and 1440 minutes post-dosing. Blood samples (4.5 ml) from the intravenously dosed chimps were collected just prior to infusion, at 15 and 29.5 minutes after the start of infusion, and then at 6, 15, 30, 45, 60, 120, 240, 360, 480, 600, 720 and 1440 minutes post-infusion. Plasma was isolated and prepared for analysis by mixing 0.1 ml of plasma with 300 μL of indiplon in (50 ng/ml in acetonitrile/water; 90/10; v/v) as an internal standard, vortexing and then centrifuging to remove any precipitated protein.
Plasma samples (10 μl) were injected to a Zorbax SB-C8 (Rapid Resolution) column (2.1×30 mm, 3.5 μm). The initial mobile phase condition was 100% A (water with 0.1% formic acid) and 0% B (acetonitrile with 0.1% formic acid) with a flow rate at 0.75 mL/min. Mobile phase B was allowed to reach 100% in 0.75 minutes and held for 1.0 minute before ramping back to 0% in another 0.1 minute. The overall run time was 3 minutes. The precursor/product ion pairs were set at m/z 186/92, m/z 191/97, m/z 189/95 and m/z 377/293 for detecting pirfenidone, Compound 106, Compound 108 and indiplon, respectively. Plasma concentration data for each compound in each animal was individually fitted to a 2-compartment model using WinNonLin version 5.2 (PK Model #9) with weighting of 1/y.

Series [2] in a line: Pharmacokinetics of Compound 106 after intravenous and oral dosing in rats. The note with it: for half-life / AUC(0-inf): male, Sprague-Dawley, rat, plasma; for half-life: 8 mg/kg co-dosed with pirfenidone; for AUC(0-inf): 8 mg/kg co-dosed. Format: in vivo, Male Sprague-Dawley rats. Here is the method: Male Sprague-Dawley rats (3 for each route of administration) were administered a combination of 8 mg/kg of Compound 106 and 8 mg/kg of pirfenidone in 10% DMI (dimethyl isosorbide), 15% ethanol, 35% PG in distilled water by either oral or intravenous dosing. Blood samples from the dosed rats were collected prior to dosing and at 15, 30, 45, 60, 75, 90, 120, 240, and 360 minutes post-dosing. Plasma was isolated and prepared for analysis by mixing 0.1 ml of plasma in an Eppendorf tube with 20 μL methanol and 500 μL of quetiapine (50 ng/ml as an internal standard), vortexing for 1 minute and then centrifuging at 15,000 rpm for 5 minutes to remove any cellular debris. Plasma samples were analyzed by LC-MS/MS.
LC was performed using an Agilent (Agilent Technologies Inc. USA) liquid chromatograph equipped with an isocratic pump (1100 series), an autosampler (1100 series) and a degasser (1100 series). Plasma samples (2 μL) were run at 25° C. on a Phenomenex Gemini, C18, 5 μm, (50 mm×2.0 mm) column using 0.1% formic acid:methanol (30:70) as the mobile phase with an elution rate of 300 μL/min.
Mass spectrometric analysis was performed on plasma samples (2 μL) prepared as set forth above using an API3000 (triple-quadrupole) instrument from AB Inc (Canada) with an ESI interface. The data acquisition and control system were created using Analyst 1.4 software from ABI Inc.

The nature of series [3]: Pharmacokinetics of Compound 108 and 109 after intravenous and oral dosing in rats. It is filed as in vivo, Male Sprague-Dawley rats. The note with it: 8 mg/kg co-dosed with 8 mg/kg pirfenidone; for % Change compared to Pirfenidone, AUC0-∞ / % Change compared to Pirfenidone, Clearance / % Change compared to Pirfenidone, Half-life: IV dosing; for % Change compared to Pirfenidone, Cmax: oral dosing.

As for `[2H]c1cc(C([2H])([2H])[2H])c([2H])n(-c2ccccc2)c1=O` [Compound 106, 3,6-Dideutero-5-(methyl-d3)-1-phenylpyridin-2(1H)-one], in series [1] (IV dosing (Avg)), the AUC(0-inf) worked out at 6900 ng·h/mL, the clearance was 4.37 mL/min/kg and the half-life was 1.4 h. Besides, in series [1] (oral dosing (Avg)), the AUC(0-inf) is 1260 ng·h/mL and the Cmax is 340 ng/mL. Besides, in series [1] (intravenous administration), the “increase in AUC as compared to pirfenidone” value (“increase in AUC” below) is given as around 50% and the “increase in half-life as compared to pirfenidone” value (“increase in half-life” for short) is on record as “greater than 10%”. In addition, in series [1] (oral dosing), the “increase in AUC” value is given as “greater than 50%” and the “increase in Cmax as compared to pirfenidone” value is listed as “greater than 50%”. In series [2] (intravenous administration), the “increase in AUC” value turned out to be 72% and the “increase in half-life” value is 62%. Moreover, in series [2] (IV dosing), the half-life was 1.2 h and the AUC(0-inf) was found to be 20100 ng·h/mL. Further, in series [2] (oral dosing), the AUC(0-inf) came to 13800 ng·h/mL and the “increase in AUC” value was determined as 75%.
For `[2H]C([2H])([2H])c1ccc(=O)n(-c2ccccc2)c1` [Compound 108, 5-(Methyl-d3)-1-phenylpyridin-2(1H)-one], in series [1] (IV dosing (Avg)), the AUC(0-inf) came out at 7000 ng·h/mL, the clearance is 4.58 mL/min/kg and the half-life was 1.5 h. For the same compound, in series [1] (oral dosing (Avg)), the AUC(0-inf) is 1350 ng·h/mL and the Cmax was found to be 360 ng/mL. Moreover, in series [1] (intravenous administration), the “increase in AUC” value was around 50% and the “increase in half-life” value is listed as “greater than 20%”. Besides, in series [1] (oral dosing), the “increase in AUC” value was around 60% and the “increase in Cmax as compared to pirfenidone” value was around 60%. For the same compound, in series [3], the “% Change compared to Pirfenidone, AUC0-∞” value is reported as “+42%”; the “% Change compared to Pirfenidone, Clearance” value is −29%; the “% Change compared to Pirfenidone, Half-life” value is given as “+37%”; the “% Change compared to Pirfenidone, Cmax” value is “+31%”.
`[2H]c1c([2H])c([2H])c(-n2cc(C([2H])([2H])[2H])ccc2=O)c([2H])c1[2H]` [Compound 109]: in series [3], the “% Change compared to Pirfenidone, AUC0-∞” value is recorded as “+29%”; the “% Change compared to Pirfenidone, Clearance” value is recorded as −23%; the “% Change compared to Pirfenidone, Half-life” value is recorded as “+41%”; the “% Change compared to Pirfenidone, Cmax” value is listed as “+19%”.
Consider `Cc1ccc(=O)n(-c2ccccc2)c1` [Pirfenidone, 5-methyl-1-phenylpyridin-2(1H)-one], for which the AUC(0-inf) in series [1] (IV dosing (Avg)) was 4800 ng·h/mL; in series [1] (oral dosing (Avg)), 830 ng·h/mL; in series [2] (IV dosing), 11600 ng·h/mL; in series [2] (oral dosing), 7910 ng·h/mL. Moreover, the clearance in series [1] (IV dosing (Avg)) was 6.57 mL/min/kg. Also, the half-life was 1.2 h in series [1] (IV dosing (Avg)) and 0.74 h in series [2] (IV dosing). Further, the Cmax in series [1] (oral dosing (Avg)) came to 230 ng/mL.

What is called AUC(0-inf) is the area under the concentration-time curve extrapolated to infinity. One may read the half-life as how long it takes for the measured level to halve. One may read the Cmax as the highest concentration seen after dosing.

The values above are taken from patent publication US20130018193A1, “DEUTERATED PIRFENIDONE” (CONCERT Pharmaceuticals Inc., priority 2007, published 2013).
